# Reference: PubChem BioAssay (NCI)
#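 Compound exposure: 48 hours, 5 concentrations, 96-well plates. Abbreviation: GI50, concentration required for 50% inhibition of growth. TGI: concentration producing complete growth inhibition.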
# Assays:
# Experiment in all cases: NCI-60 cell line screen, 48 h
# [1] = tested on: HS 578T breast
# [2] = tested on: HOP-92 NSCLC
# [3] = tested on: HT29 colon
# [4] = tested on: CCRF-CEM leukemia
# [5] = tested on: UACC-62 melanoma
# [6] = tested on: SR leukemia
# [7] = tested on: EKVX NSCLC
# [8] = tested on: TK-10 renal
# [9] = tested on: OVCAR-5 ovarian
# [10] = tested on: K-562 leukemia
# [11] = tested on: SNB-19 CNS
# [12] = tested on: RXF 393 renal
# [13] = tested on: SK-MEL-5 melanoma
# [14] = tested on: SN12C renal
# [15] = tested on: HCT-15 colon
# [16] = tested on: A549 NSCLC
# [17] = tested on: MDA-MB-231 breast
# [18] = tested on: HCC-2998 colon
# [19] = tested on: DU-145 prostate
# [20] = tested on: OVCAR-8 ovarian
# [21] = tested on: HL-60(TB) leukemia
# [22] = tested on: SF-268 CNS
# [23] = tested on: MOLT-4 leukemia
# [24] = tested on: SK-MEL-2 melanoma
# [25] = tested on: LOX IMVI melanoma
# [26] = tested on: OVCAR-4 ovarian
# [27] = tested on: SF-295 CNS
# [28] = tested on: SK-OV-3 ovarian
# [29] = tested on: UACC-257 melanoma
# [30] = tested on: IGROV1 ovarian
# [31] = tested on: NCI-H460 lung
# [32] = tested on: MDA-MB-435
# [33] = tested on: COLO 205 colon
# [34] = tested on: MCF7 breast
# [35] = tested on: SK-MEL-28 melanoma
# [36] = tested on: T-47D breast
# [37] = tested on: U251 CNS
# [38] = tested on: CAKI-1 renal
# [39] = tested on: A498 renal
# [40] = tested on: 786-0 renal
# [41] = tested on: SF-539 CNS
# [42] = tested on: HOP-62 NSCLC
# [43] = tested on: PC-3 prostate
# [44] = tested on: RPMI-8226 leukemia
# [45] = tested on: HCT-116 colon
# [46] = tested on: ACHN renal
# [47] = tested on: UO-31 renal
# [48] = tested on: NCI-H23 lung
# [49] = tested on: BT-549 breast
# [50] = tested on: NCI-H522 lung
# [51] = tested on: NCI-H226 lung
# [52] = tested on: OVCAR-3 ovarian
# [53] = tested on: M14 melanoma
# [54] = tested on: KM12 colon
# [55] = tested on: NCI/ADR-RES ovarian
# [56] = tested on: SW-620 colon
# [57] = tested on: MALME-3M melanoma
# [58] = tested on: SNB-75 CNS
# [59] = tested on: MDA-N
compound,measurement,setting,value
CC1(C)C(N(O)C(=O)Nc2ccc(Cl)cc2)N(c2ccc(Cl)cc2)C(=O)N1CC(=O)N/N=C/C=C/c1ccc([N+](=O)[O-])o1 (stereo not given),GI50,[1],3 µM
same,TGI,[1],> 84.4 µM
same,GI50,[2],0.522 µM
same,TGI,[2],2.31 µM
same,GI50,[3],1.92 µM
same,TGI,[3],> 22.6 µM
same,GI50,[4],0.604 µM
same,TGI,[4],2.2 µM
same,GI50,[5],1.35 µM
same,TGI,[5],3.91 µM
same,GI50,[6],0.273 µM
same,TGI,[6],1.95 µM
same,GI50,[7],3.17 µM
same,TGI,[7],> 83.4 µM
same,GI50,[8],4.06 µM
same,TGI,[8],> 100 µM
same,GI50,[9],3.81 µM
same,TGI,[9],14 µM
same,GI50,[10],1.57 µM
same,TGI,[10],6.03 µM
same,GI50,[11],2.27 µM
same,TGI,[11],6.73 µM
same,GI50,[12],0.337 µM
same,TGI,[12],1.64 µM
same,GI50,[13],1.32 µM
same,TGI,[13],2.76 µM
same,GI50,[14],1.73 µM
same,TGI,[14],9.73 µM
same,GI50,[15],2.49 µM
same,TGI,[15],> 100 µM
same,GI50,[16],3.11 µM
same,TGI,[16],> 28.5 µM
same,GI50,[17],2.04 µM
same,TGI,[17],7.57 µM
same,GI50,[18],1.7 µM
same,TGI,[18],3.43 µM
same,GI50,[19],1.85 µM
same,TGI,[19],4.07 µM
same,GI50,[20],1.86 µM
same,GI50,[21],1.09 µM
same,TGI,[21],4 µM
same,GI50,[22],3.8 µM
same,TGI,[22],> 59 µM
same,GI50,[23],0.804 µM
same,TGI,[23],4.47 µM
same,GI50,[24],0.946 µM
same,TGI,[24],4.42 µM
same,GI50,[25],1.56 µM
same,TGI,[25],3.04 µM
same,GI50,[26],3.87 µM
same,TGI,[26],> 100 µM
same,GI50,[27],2.55 µM
same,TGI,[27],> 100 µM
same,GI50,[28],4.48 µM
same,TGI,[28],> 100 µM
same,GI50,[29],1.58 µM
same,TGI,[29],3.52 µM
same,GI50,[30],2.46 µM
same,GI50,[31],2.27 µM
same,TGI,[31],6.39 µM
same,GI50,[32],2.61 µM
same,TGI,[32],10.9 µM
same,GI50,[33],1.33 µM
same,TGI,[33],2.85 µM
same,GI50,[34],1.01 µM
same,TGI,[34],> 26.7 µM
same,GI50,[35],1.61 µM
same,TGI,[35],3.16 µM
same,GI50,[36],3.47 µM
same,TGI,[36],> 70.1 µM
same,GI50,[37],1.57 µM
same,TGI,[37],> 20.7 µM
same,GI50,[38],> 23.2 µM
same,TGI,[38],> 100 µM
same,GI50,[39],1.73 µM
same,TGI,[39],4.12 µM
same,GI50,[40],2.75 µM
same,TGI,[40],10.3 µM
same,GI50,[41],1.81 µM
same,TGI,[41],3.81 µM
same,GI50,[42],2.76 µM
same,TGI,[42],6.2 µM
same,GI50,[43],0.679 µM
same,GI50,[44],0.327 µM
same,TGI,[44],1.63 µM
same,GI50,[45],0.731 µM
same,TGI,[45],2.52 µM
same,GI50,[46],3.16 µM
same,TGI,[46],> 100 µM
same,GI50,[47],2.64 µM
same,TGI,[47],> 20.8 µM
same,GI50,[48],2.13 µM
same,TGI,[48],5.56 µM
same,GI50,[49],1.6 µM
same,TGI,[49],5.19 µM
same,GI50,[50],2.23 µM
same,TGI,[50],> 21.3 µM
same,GI50,[51],1.99 µM
same,TGI,[51],4.88 µM
same,GI50,[52],1.49 µM
same,TGI,[52],3.96 µM
same,GI50,[53],1.88 µM
same,TGI,[53],7.08 µM
same,GI50,[54],1.71 µM
same,TGI,[54],3.76 µM
same,GI50,[55],> 100 µM
same,TGI,[55],> 100 µM
same,GI50,[56],1.31 µM
same,TGI,[56],3.52 µM
same,GI50,[57],1.29 µM
same,TGI,[57],3.08 µM
same,GI50,[58],1.88 µM
same,TGI,[58],7.11 µM
C=Cc1nc2nnc(CCCCCCCCc3nnc4nc(C=C)[nH]n34)n2[nH]1,TGI,[3],> 100 µM
same,TGI,[4],> 100 µM
same,TGI,[7],> 100 µM
same,TGI,[8],> 100 µM
same,TGI,[9],> 100 µM
same,TGI,[10],> 100 µM
same,TGI,[11],> 100 µM
same,TGI,[12],> 100 µM
same,TGI,[13],> 100 µM
same,TGI,[14],> 100 µM
same,TGI,[15],> 100 µM
same,TGI,[16],> 100 µM
same,TGI,[17],> 100 µM
same,TGI,[18],> 100 µM
same,TGI,[19],> 100 µM
same,TGI,[20],> 100 µM
same,TGI,[21],> 100 µM
same,TGI,[22],> 100 µM
same,TGI,[59],> 100 µM
same,TGI,[23],> 100 µM
same,TGI,[24],> 100 µM
same,TGI,[25],> 100 µM
same,TGI,[26],> 100 µM
same,TGI,[27],> 100 µM
same,TGI,[28],> 100 µM
same,TGI,[29],> 100 µM
same,TGI,[30],> 100 µM
same,TGI,[31],> 100 µM
same,TGI,[32],> 100 µM
same,TGI,[33],> 100 µM
same,TGI,[34],> 100 µM
same,TGI,[35],> 100 µM
same,TGI,[37],> 100 µM
same,TGI,[38],> 100 µM
same,TGI,[39],> 100 µM
same,TGI,[40],> 100 µM
same,TGI,[41],> 100 µM
same,TGI,[42],> 100 µM
same,TGI,[43],> 100 µM
same,TGI,[45],> 100 µM
same,TGI,[46],> 100 µM
same,TGI,[47],> 100 µM
same,TGI,[48],> 100 µM
same,TGI,[49],> 100 µM
same,TGI,[51],> 100 µM
same,TGI,[52],> 100 µM
same,TGI,[53],> 100 µM
same,TGI,[54],> 100 µM
same,TGI,[55],> 100 µM
same,TGI,[56],> 100 µM
same,TGI,[57],> 100 µM
same,TGI,[58],> 100 µM
